Test [1] has as its target T1, WRN [UniPro: Q14191 (WRN_HUMAN), N500-C946] (Homo sapiens (Human), UniProt Q14191). Description: WRN ATPase assay (ADP-Glo). The test is classed as biochemical. The settings on record: WRN enzymatic activity assay.
Test [2] addresses T1, WRN [UniPro: Q14191 (WRN_HUMAN), N500-C946]. Nature of the test: WRN unwinding assay (FORKF DNA, fluorescence). The settings on record: Table 14. In kind it is biochemical.

Where only a bound is given, the exact number is not on record here.

T1 sequence (Q14191 500-946): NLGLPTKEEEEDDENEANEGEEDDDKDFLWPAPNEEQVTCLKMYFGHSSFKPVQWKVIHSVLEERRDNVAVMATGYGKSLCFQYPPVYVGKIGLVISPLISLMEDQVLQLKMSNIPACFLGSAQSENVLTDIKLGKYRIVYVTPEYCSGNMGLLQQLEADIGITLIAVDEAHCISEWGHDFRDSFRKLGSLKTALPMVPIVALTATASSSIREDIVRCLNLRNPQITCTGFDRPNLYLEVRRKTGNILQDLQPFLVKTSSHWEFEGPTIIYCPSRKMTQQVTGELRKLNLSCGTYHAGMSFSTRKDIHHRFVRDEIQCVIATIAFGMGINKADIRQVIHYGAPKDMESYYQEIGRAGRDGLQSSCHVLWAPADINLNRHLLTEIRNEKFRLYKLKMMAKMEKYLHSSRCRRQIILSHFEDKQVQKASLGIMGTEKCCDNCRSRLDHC

In general, IC50 refers to the concentration that gives 50% inhibition. Higher therefore signals weaker potency. Regarding `CCc1c(N2CCN(C(=O)CNC(=O)Nc3cc(F)ccc3F)CC2)c(=O)n2nc(C3=CCOCC3)nc2n1CC(=O)Nc1ccc(C(F)(F)F)cc1Cl` [Example 186, N-(2-Chloro-4-(trifluoromethyl)phenyl)-2-(6-(4-(((2,5-difluorophenyl)carbamoyl)glycyl)piperazin-1-yl)-2-(3,6-dihydro-2H-pyran-4-yl)-5-ethyl-7-oxo-[1,2,4]triazolo[1,5-a]pyrimidin-4(7H)-yl)acetamide], the half-maximal inhibitory concentration (IC50) in test [1] and in test [2] was less than 100 nM in each case.

For `CCc1c(N2CCN(C(=O)CNC(=O)Nc3ccccc3C#N)CC2)c(=O)n2nc(C3=CCOCC3)nc2n1CC(=O)Nc1ccc(C(F)(F)F)cc1Cl` [Example 187, N-(2-Chloro-4-(trifluoromethyl)phenyl)-2-(6-(4-(((2-cyanophenyl)carbamoyl)glycyl)piperazin-1-yl)-2-(3,6-dihydro-2H-pyran-4-yl)-5-ethyl-7-oxo-[1,2,4]triazolo[1,5-a]pyrimidin-4(7H)-yl)acetamide], the 50% inhibitory concentration (IC50) in test [1] and in test [2] was less than 100 nM in each case.

Regarding `CCc1c(N2CCN(C(=O)CNC(=O)Nc3nccs3)CC2)c(=O)n2nc(C3=CCOCC3)nc2n1CC(=O)Nc1ccc(C(F)(F)F)cc1Cl` [Example 188, N-(2-Chloro-4-(trifluoromethyl)phenyl)-2-(2-(3,6-dihydro-2H-pyran-4-yl)-5-ethyl-7-oxo-6-(4-((thiazol-2-ylcarbamoyl)glycyl)piperazin-1-yl)-[1,2,4]triazolo[1,5-a]pyrimidin-4(7H)-yl)acetamide], the IC50 in test [1] and in test [2] was less than 100 nM throughout.

With `CCc1c(N2CCN(C(=O)CNC(=O)N(C)Cc3ccccc3)CC2)c(=O)n2nc(C3=CCOCC3)nc2n1CC(=O)Nc1ccc(C(F)(F)F)cc1Cl` [Example 189, 2-(6-(4-((Benzyl(methyl)carbamoyl)glycyl)piperazin-1-yl)-2-(3,6-dihydro-2H-pyran-4-yl)-5-ethyl-7-oxo-[1,2,4]triazolo[1,5-a]pyrimidin-4(7H)-yl)-N-(2-chloro-4-(trifluoromethyl)phenyl)acetamide], the 50% inhibitory concentration (IC50) in test [1] and in test [2] was less than 100 nM in each case.

Consider `CCc1c(N2CCN(C(=O)CNC(=O)NCC3CC3)CC2)c(=O)n2nc(C3=CCOCC3)nc2n1CC(=O)Nc1ccc(C(F)(F)F)cc1Cl` [Example 190, N-(2-Chloro-4-(trifluoromethyl)phenyl)-2-(6-(4-(((cyclopropylmethyl)carbamoyl)glycyl)piperazin-1-yl)-2-(3,6-dihydro-2H-pyran-4-yl)-5-ethyl-7-oxo-[1,2,4]triazolo[1,5-a]pyrimidin-4(7H)-yl)acetamide], for which the IC50 in test [1] and in test [2] was less than 100 nM throughout.

As for `CCc1c(N2CCN(C(=O)CNC(=O)NCc3ccccc3F)CC2)c(=O)n2nc(C3=CCOCC3)nc2n1CC(=O)Nc1ccc(C(F)(F)F)cc1Cl` [Example 191, N-(2-Chloro-4-(trifluoromethyl)phenyl)-2-(2-(3,6-dihydro-2H-pyran-4-yl)-5-ethyl-6-(4-(((2-fluorobenzyl)carbamoyl)glycyl)piperazin-1-yl)-7-oxo-[1,2,4]triazolo[1,5-a]pyrimidin-4(7H)-yl)acetamide], the concentration for half-maximal inhibition (IC50) in test [1] and in test [2] was less than 100 nM throughout.

For the compound `CCc1c(N2CCN(C(=O)CNC(=O)N3Cc4ccncc4C3)CC2)c(=O)n2nc(C3=CCOCC3)nc2n1CC(=O)Nc1ccc(C(F)(F)F)cc1Cl` [Example 192, N-(2-(4-(4-(2-((2-Chloro-4-(trifluoromethyl)phenyl)amino)-2-oxoethyl)-2-(3,6-dihydro-2H-pyran-4-yl)-5-ethyl-7-oxo-4,7-dihydro-[1,2,4]triazolo[1,5-a]pyrimidin-6-yl)piperazin-1-yl)-2-oxoethyl)-1,3-dihydro-2H-pyrrolo[3,4-c]pyridine-2-carboxamide], the half-inhibitory concentration (IC50) in test [1] and in test [2] was less than 100 nM throughout.

Turning to `CCc1c(N2CCN(C(=O)CNC(=O)N3CCc4cccc(F)c43)CC2)c(=O)n2nc(C3=CCOCC3)nc2n1CC(=O)Nc1ccc(C(F)(F)F)cc1Cl` [Example 193, N-(2-(4-(4-(2-((2-Chloro-4-(trifluoromethyl)phenyl)amino)-2-oxoethyl)-2-(3,6-dihydro-2H-pyran-4-yl)-5-ethyl-7-oxo-4,7-dihydro-[1,2,4]triazolo[1,5-a]pyrimidin-6-yl)piperazin-1-yl)-2-oxoethyl)-7-fluoroindoline-1-carboxamide], the IC50 in test [1] and in test [2] was less than 100 nM in each case.

Turning to `CCc1c(N2CCN(S(=O)(=O)NC(=O)c3ccccc3)CC2)c(=O)n2nc(C3=CCOCC3)nc2n1CC(=O)Nc1ccc(C(F)(F)F)cc1Cl` [Example 194, N-((4-(4-(2-((2-Chloro-4-(trifluoromethyl)phenyl)amino)-2-oxoethyl)-2-(3,6-dihydro-2H-pyran-4-yl)-5-ethyl-7-oxo-4,7-dihydro-[1,2,4]triazolo[1,5-a]pyrimidin-6-yl)piperazin-1-yl)sulfonyl)benzamide], the IC50 in test [1] and in test [2] was less than 100 nM each time.

On to `CCc1c(N2CCN(C(=O)c3ncc4ncsc4c3O)CC2)c(=O)n2nc(C3=CCOCC3)nc2n1CC(=O)Nc1ccc(C(F)(F)F)cc1Cl` [Example 195, N-(2-Chloro-4-(trifluoromethyl)phenyl)-2-(2-(3,6-dihydro-2H-pyran-4-yl)-5-ethyl-6-(4-(7-hydroxythiazolo[4,5-c]pyridine-6-carbonyl)piperazin-1-yl)-7-oxo-[1,2,4]triazolo[1,5-a]pyrimidin-4(7H)-yl)acetamide], for which the concentration for half-maximal inhibition (IC50) in test [1] and in test [2] was less than 100 nM throughout.

`CCc1c(N2CCN(C(=O)c3ncc4nc(Cl)sc4c3O)CC2)c(=O)n2nc(C3=CCOCC3)nc2n1CC(=O)Nc1ccc(C(F)(F)F)cc1Cl` [Example 196, N-(2-Chloro-4-(trifluoromethyl)phenyl)-2-(6-(4-(2-chloro-7-hydroxythiazolo[4,5-c]pyridine-6-carbonyl)piperazin-1-yl)-2-(3,6-dihydro-2H-pyran-4-yl)-5-ethyl-7-oxo-[1,2,4]triazolo[1,5-a]pyrimidin-4(7H)-yl)acetamide]: the IC50 in test [1] and in test [2] was less than 100 nM throughout.

`CCc1c(N2CCN(C(=O)c3cc4sccc4[nH]c3=O)CC2)c(=O)n2nc(C3=CCOCC3)nc2n1CC(=O)Nc1ccc(C(F)(F)F)cc1Cl` [Example 197, N-(2-Chloro-4-(trifluoromethyl)phenyl)-2-(2-(3,6-dihydro-2H-pyran-4-yl)-5-ethyl-7-oxo-6-(4-(5-oxo-4,5-dihydrothieno[3,2-b]pyridine-6-carbonyl)piperazin-1-yl)-[1,2,4]triazolo[1,5-a]pyrimidin-4(7H)-yl)acetamide]: the IC50 in test [1] and in test [2] was less than 100 nM in each case.

Regarding `CCc1c(N2CCN(C(=O)c3c(O)nn4c(Cl)cccc34)CC2)c(=O)n2nc(C3=CCOCC3)nc2n1CC(=O)Nc1ccc(C(F)(F)F)cc1Cl` [Example 198, 2-(6-(4-(7-Chloro-2-hydroxypyrazolo[1,5-a]pyridine-3-carbonyl)piperazin-1-yl)-2-(3,6-dihydro-2H-pyran-4-yl)-5-ethyl-7-oxo-[1,2,4]triazolo[1,5-a]pyrimidin-4(7H)-yl)-N-(2-chloro-4-(trifluoromethyl)phenyl)acetamide], the concentration for half-maximal inhibition (IC50) in test [1] and in test [2] was less than 100 nM each time.

The record behind these values is patent US20260015358A1, “BICYCLIC DERIVATIVES, COMPOSITIONS AND USES THEREOF” (Danatlas Pharmaceuticals Co., Ltd., priority 2023, published 2026).
